Structures can show the parent of a compound that is named as a salt.
Key:
Details in all cases: exposure time: 72 h
E21 [1] = patient-derived glioblastoma stem cells of mesenchymal subtype; assay: surviving fraction (nuclei count normalised to DMSO); higher = more cells surviving (less toxic)
FT3469 [2] = normal neural stem cell line; assay: as above
E57 [3] = patient-derived glioblastoma stem cells of mesenchymal subtype; assay: as above
E13 [4] = patient-derived glioblastoma stem cells of classical subtype; assay: as above
E31 [5] = patient-derived glioblastoma stem cells of proneural subtype; assay: as above
E34 [6] = patient-derived glioblastoma stem cells of proneural subtype; assay: as above
E28 [7] = patient-derived glioblastoma stem cells of classical subtype; assay: as above
E21 [8] = assay: phenotypic distance (Euclidean, principal components) from DMSO controls (arbitrary units); higher = stronger morphological change
FT3469 [9] = assay: as above
E57 [10] = assay: as above
E13 [11] = assay: as above
E31 [12] = assay: as above
E34 [13] = assay: as above
E28 [14] = assay: as above
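Wherever phenotypic distance (Euclidean, principal components) from DMSO controls is given: cell Painting imaging in 384-well plates, CellProfiler features reduced to at least 20 principal components, Euclidean distance versus same-plate DMSO vehicle wells (0.1% v/v), median over six images per well.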
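Wherever surviving fraction (nuclei count normalised to DMSO) is given: nuclei counted by high-content imaging of Hoechst-stained cells in laminin-coated 384-well plates, relative to 0.1% DMSO vehicle wells, with staurosporine as cell-death control.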

COc1cccc2c1C(=O)c1c(O)c3c(c(O)c1C2=O)C[C@@](O)(C(=O)CO)C[C@@H]3O[C@H]1C[C@H](N)[C@H](O)[C@H](C)O1 [Doxorubicin hydrochloride]
Details | phenotypic distance | surviving fraction
E13 [4], 4.1 nM | – | 0.639
E13 [4], 12.3 nM | – | 0.527
E13 [4], 37 nM | – | 0.409
E13 [4], 111.1 nM | – | 0.265
E13 [4], 333.3 nM | – | 0.188
E13 [4], 1000 nM | – | 0.0799
E13 [4], 3000 nM | – | 0.0133
E13 [11], 4.1 nM | 2.25 | –
E13 [11], 12.3 nM | 3.82 | –
E13 [11], 37 nM | 5.4 | –
E13 [11], 111.1 nM | 6.04 | –
E13 [11], 333.3 nM | 6.31 | –
E13 [11], 1000 nM | 6.48 | –
E13 [11], 3000 nM | 6.01 | –
E21 [1], 4.1 nM | – | 0.799
E21 [1], 12.3 nM | – | 0.544
E21 [1], 37 nM | – | 0.428
E21 [1], 111.1 nM | – | 0.237
E21 [1], 333.3 nM | – | 0.17
E21 [1], 1000 nM | – | 0.0999
E21 [1], 3000 nM | – | 0.0192
E21 [8], 4.1 nM | 1.5 | –
E21 [8], 12.3 nM | 4.4 | –
E21 [8], 37 nM | 6.35 | –
E21 [8], 111.1 nM | 5.11 | –
E21 [8], 333.3 nM | 5.4 | –
E21 [8], 1000 nM | 5.92 | –
E21 [8], 3000 nM | 6.77 | –
E28 [7], 4.1 nM | – | 0.535
E28 [7], 12.3 nM | – | 0.403
E28 [7], 37 nM | – | 0.341
E28 [7], 111.1 nM | – | 0.163
E28 [7], 333.3 nM | – | 0.174
E28 [7], 1000 nM | – | 0.35
E28 [7], 3000 nM | – | 0.0586
E28 [14], 4.1 nM | 2.14 | –
E28 [14], 12.3 nM | 2.39 | –
E28 [14], 37 nM | 2.6 | –
E28 [14], 111.1 nM | 3.51 | –
E28 [14], 333.3 nM | 3.16 | –
E28 [14], 1000 nM | 3.08 | –
E28 [14], 3000 nM | 5.26 | –
E31 [5], 4.1 nM | – | 0.425
E31 [5], 12.3 nM | – | 0.381
E31 [5], 37 nM | – | 0.269
E31 [5], 111.1 nM | – | 0.186
E31 [5], 333.3 nM | – | 0.105
E31 [5], 1000 nM | – | 0.0519
E31 [5], 3000 nM | – | 0.0645
E31 [12], 4.1 nM | 2.91 | –
E31 [12], 12.3 nM | 2.49 | –
E31 [12], 37 nM | 2.07 | –
E31 [12], 111.1 nM | 2.28 | –
E31 [12], 333.3 nM | 4.77 | –
E31 [12], 1000 nM | 5.51 | –
E31 [12], 3000 nM | 5.71 | –
E34 [6], 4.1 nM | – | 0.738
E34 [6], 12.3 nM | – | 0.599
E34 [6], 37 nM | – | 0.502
E34 [6], 111.1 nM | – | 0.539
E34 [6], 333.3 nM | – | 0.502
E34 [6], 1000 nM | – | 0.346
E34 [6], 3000 nM | – | 0.123
E34 [13], 4.1 nM | 0.849 | –
E34 [13], 12.3 nM | 3.53 | –
E34 [13], 37 nM | 4.3 | –
E34 [13], 111.1 nM | 3.08 | –
E34 [13], 333.3 nM | 2.7 | –
E34 [13], 1000 nM | 5.02 | –
E34 [13], 3000 nM | 4.21 | –
E57 [3], 4.1 nM | – | 0.74
E57 [3], 12.3 nM | – | 0.411
E57 [3], 37 nM | – | 0.229
E57 [3], 111.1 nM | – | 0.172
E57 [3], 333.3 nM | – | 0.164
E57 [3], 1000 nM | – | 0.113
E57 [3], 3000 nM | – | 0.0765
E57 [10], 4.1 nM | 1.85 | –
E57 [10], 12.3 nM | 4.6 | –
E57 [10], 37 nM | 8.27 | –
E57 [10], 111.1 nM | 7.23 | –
E57 [10], 333.3 nM | 7.01 | –
E57 [10], 1000 nM | 7.35 | –
E57 [10], 3000 nM | 7.3 | –
FT3469 [2], 4.1 nM | – | 0.574
FT3469 [2], 12.3 nM | – | 0.678
FT3469 [2], 37 nM | – | 0.598
FT3469 [2], 111.1 nM | – | 0.582
FT3469 [2], 333.3 nM | – | 0.234
FT3469 [2], 1000 nM | – | 0.149
FT3469 [2], 3000 nM | – | 0.0213
FT3469 [9], 4.1 nM | 1.83 | –
FT3469 [9], 12.3 nM | 1.46 | –
FT3469 [9], 37 nM | 1.66 | –
FT3469 [9], 111.1 nM | 1.6 | –
FT3469 [9], 333.3 nM | 4.2 | –
FT3469 [9], 1000 nM | 3 | –
FT3469 [9], 3000 nM | 8.29 | –
